Assay results reported in patent US10899738B2 (THE REGENTS OF THE UNIVERSITY OF MICHIGAN, priority 2016, dated 2021).

These molecules were tested against menin protein (Homo sapiens (Human), UniProt O00255) (assay: biochemical). Conditions: FP competitive binding; menin protein 4 nM, FAM-MM2 probe 2 nM.
Type: binding
How it was run: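 Competitive fluorescence polarization assay using FAM-labelled MLL1 peptide probe FAM-MM2 (2 nM final) preincubated with menin (4 nM final) in PBS with 0.02% bovine γ-globulin, 4% DMSO and 0.01% Triton X-100. Compounds were added and incubated 30 min at room temperature. IC50 came from nonlinear regression of competition curves, with Ki also derived.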

Chain of menin protein (O00255 whole entry): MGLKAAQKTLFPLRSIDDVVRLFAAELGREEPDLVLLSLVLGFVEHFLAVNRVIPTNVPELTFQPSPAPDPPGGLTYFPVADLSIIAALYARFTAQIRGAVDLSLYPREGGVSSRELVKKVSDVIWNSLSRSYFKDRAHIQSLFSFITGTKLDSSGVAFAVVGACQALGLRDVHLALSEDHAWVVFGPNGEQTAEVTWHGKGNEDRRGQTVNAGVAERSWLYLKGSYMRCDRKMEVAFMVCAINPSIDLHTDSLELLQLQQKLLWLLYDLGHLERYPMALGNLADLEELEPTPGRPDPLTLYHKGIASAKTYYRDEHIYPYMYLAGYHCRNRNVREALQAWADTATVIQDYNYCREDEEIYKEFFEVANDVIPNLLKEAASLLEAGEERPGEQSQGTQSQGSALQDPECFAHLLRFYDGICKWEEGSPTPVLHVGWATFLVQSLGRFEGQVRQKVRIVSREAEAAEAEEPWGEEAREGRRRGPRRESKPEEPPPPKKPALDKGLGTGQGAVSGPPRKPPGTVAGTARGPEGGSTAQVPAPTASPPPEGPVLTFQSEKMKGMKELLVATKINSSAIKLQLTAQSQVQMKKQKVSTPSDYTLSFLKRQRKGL

Menin Binding Affinity IC50 (μM) | Compound
No inhibition | CCN1Cc2ccccc2C(C2CCCC2)(C2CCN(S(=O)(=O)C3CN(c4ccc(S(=O)(=O)c5ccncc5)cc4)C3)CC2)C1 (stereo not drawn) [compound 160, 4-cyclopentyl-2-ethyl-4-(1-((1-(4-(pyridin-4-ylsulfonyl)phenyl)azetidin-3-yl)sulfonyl)piperidin-4-yl)-1,2,3,4-tetrahydroisoquinoline]

Same assay, conditions: FP competitive binding; menin protein 4 nM, FAM-MM2 probe 2 nM; read-out: Menin Binding Affinity IC50

Compound | IC50
N#Cc1ccc(OCCCN2CCC(C3(C4CCCC4)NCCc4c(F)cccc43)CC2)cc1 (stereo not drawn) [compound 29, 4-(3-(4-(1-cyclopentyl-5-fluoro-1,2,3,4-tetrahydroisoquinolin-1-yl)piperidin-1-yl)propoxy)benzonitrile] | 91 nM
CN(C)C(=O)N[C@@H]1CCC[C@H]1C(Cn1ccnc1)(c1ccccc1)C1CCN(CC2CN(c3ccc(S(=O)(=O)c4cnn(C)c4)cc3)C2)CC1 (mixture of isomers) [compound 377, rac-3-((1R,2S)-2-(2-(1H-imidazol-1-yl)-1-(1-((1-(4-((1-methyl-1H-pyrazol-4-yl)sulfonyl)phenyl)azetidin-3-yl)methyl)piperidin-4-yl)-1-phenylethyl)cyclopentyl)-1,1-dimethylurea] | 1130 nM
N#CC(c1ccccc1)(C1CCN(CC2CN(c3ccc(S(=O)(=O)c4ccncc4)cc3)C2)CC1)[C@@H]1CCC[C@H]1CO (mixture of isomers) [compound 257, rac-2-((1R,2R)-2-(hydroxymethyl)cyclopentyl)-2-phenyl-2-(1-((1-(4-(pyridin-4-ylsulfonyl)phenyl)azetidin-3-yl)methyl)piperidin-4-yl)acetonitrile] | 4600 nM
COCC[C@H]1CCC[C@@H]1C(C#N)(c1ccccc1)C1CCN(CC2CN(c3ccc(S(=O)(=O)c4ccnc(C)c4)cc3)C2)CC1 (mixture of isomers) [compound 336, rac-2-((1S,2R)-2-(2-methoxyethyl)cyclopentyl)-2-(1-((1-(4-((2-methylpyridin-4-yl)sulfonyl)phenyl)azetidin-3-yl)methyl)piperidin-4-yl)-2-phenylacetonitrile] | 29400 nM
N#Cc1ccc(OCCN2CCC(CC3(C4CCCC4)NCCc4ccccc43)CC2)cc1 (stereo not drawn) [compound 105, 4-(2-(4-((1-cyclopentyl-1,2,3,4-tetrahydroisoquinolin-1-yl)methyl)piperidin-1-yl)ethoxy)benzonitrile] | 20200 nM
CCCCC(=O)c1cc2cc(CCN3CCC(C4(C5CCCC5)NCCc5ccccc54)CC3)ccc2n1C (stereo not drawn) [compound 65, 1-(5-(2-(4-(1-cyclopentyl-1,2,3,4-tetrahydroisoquinolin-1-yl)piperidin-1-yl)ethyl)-1-methyl-1H-indol-2-yl)pentan-1-one] | 2800 nM
c1ccc2c(c1)CCNC2(CC1CCNCC1)C1CCCC1 (stereo not drawn) [compound 107, 1-cyclopentyl-1-(piperidin-4-ylmethyl)-1,2,3,4-tetrahydroisoquinoline] | 299000 nM
N#Cc1ccc(OCCCN2CCC(C3(C4CCCC4)CNC(=O)c4ccccc43)CC2)cc1 (stereo not drawn) [compound 21, 4-(3-(4-(4-cyclopentyl-1-oxo-1,2,3,4-tetrahydroisoquinolin-4-yl)piperidin-1-yl)propoxy)benzonitrile] | 1100 nM
N#Cc1ccc(N2CC(CN3CCC(C4(C5CCCC5)NCCc5ccccc54)CC3)C2)cc1 (stereo not drawn) [Cpd. No. 129, 4-(3-((4-(1-cyclopentyl-1,2,3,4-tetrahydroisoquinolin-1-yl)piperidin-1-yl)methyl)azetidin-1-yl)benzonitrile] | 36 nM
N#Cc1ccc(N2CCCC(CN3CCC(C4(C5CCCC5)NCCc5ccccc54)CC3)C2)cc1 (stereo not drawn) [compound 115, 4-(3-((4-(1-cyclopentyl-1,2,3,4-tetrahydroisoquinolin-1-yl)piperidin-1-yl)methyl)piperidin-1-yl)benzonitrile] | 4000 nM
COC(=O)N[C@@H]1CCC[C@H]1C(C#N)(c1ccccc1)C1CCN(CC2CN(c3ccc(S(=O)(=O)c4ccccc4)cc3)C2)CC1 (mixture of isomers) [compound 348, methyl (rac-(1R,2S)-2-(cyano(phenyl)(1-((1-(4-(phenylsulfonyl)phenyl)azetidin-3-yl)methyl)piperidin-4-yl)methyl)cyclopentyl) carbamate] | 819 nM
